Results published in patent US20230150924A1, “NOVEL COMPOUND HAVING CANCER METASTASIS INHIBITORY ACTIVITY, PREPARATION METHOD THEREFOR, AND PHARMACEUTICAL COMPOSITION FOR INHIBITING CANCER METASTASIS AND INVASION OR TREATING COLORECTAL CANCER, COMPRISING COMPOUND” (CELLGENTEK CO., LTD., priority 2019, published 2023).

Experiments:
[1] = test system: KAI1 promoter; assay: KAI1 promoter luciferase reporter assay in transfected Caco2 cells; type: cell-based, human; conditions: Homo sapiens, Caco-2, 16 h, 1 μM compound, 16 hours, transfected Caco2 cells, luciferase activity relative to DMSO control (=1); read-out: Relative KAI promoter activity
[2] = test system: invasion of colorectal cancer cells; assay: In vivo relative invation (invasion; EV and KITENIN controls, no method described); conditions: relative to EV (=1); KIT = KITENIN

Compound	fold induction at 1 µM [1]	In vivo relative invation [2]
CCCCN(CCO)Cc1ccc(C(=O)NCC(=O)c2ccccc2)cc1 [Example 268, 4-((butyl(2-hydroxyethyl)amino)methyl)-N-(2-oxo-2-phenylethyl)benzamide]	1.6	1.22
CN(C)c1ccc(C(=O)CNS(=O)(=O)c2ccc(F)cc2)cc1 [Example 107, N-(2-(4-(dimethylamino)phenyl)-2-oxoethyl)-4-fluorobenzenesulfonamide]	2.07	0.9868
O=C(COc1ccccc1C(=O)NCC(=O)c1ccccc1)NC1CCCCC1 [Example 230, 2-(2-(cyclohexylamino)-2-oxoethoxy)-N-(2-oxo-2-phenylethyl)benzamide]	1.08	1.267
COc1cccc(C(=O)CNC(=O)c2cccc(CN3CCN(c4ccccn4)CC3)c2)c1 [Example 284, N-(2-(3-methoxyphenyl)-2-oxoethyl)-3-((4-(pyridin-2-yl)piperazin-1-yl)methyl)benzamide]	1.44	1.276
O=C(CNC(=O)c1ccc(F)cc1Cl)c1ccccc1 [Example 33, 2-chloro-4-fluoro-N-(2-oxo-2-phenylethyl)benzamide]	1.78	0.7513
COCC(=O)N1CCC(Oc2ccccc2C(=O)NCC(=O)c2ccccc2)CC1 [Example 178, 2-((1-(2-methoxyacetyl)piperidin-4-yl)oxy)-N-(2-oxo-2-phenylethyl)benzamide]	0.91	1.228
Cc1cccc(C(=O)N2CCC(Oc3ccccc3C(=O)NCC(=O)c3ccccc3)CC2)c1 [Example 163, 2-((1-(3-methylbenzoyl)piperidin-4-yl)oxy)-N-(2-oxo-2-phenylethyl)benzamide]	1.1	1.163
O=C(CNC(=O)c1ccccc1OC1CCN(C(=O)c2cccc(C(F)(F)F)c2)CC1)c1ccccc1 [Example 192, N-(2-oxo-2-phenylethyl)-2-((1-(3-(trifluoromethyl)benzoyl)piperidin-4-yl)oxy)benzamide]	0.92	1.25
CC(Oc1ccccc1)C(=O)N1CCC(Oc2ccccc2C(=O)NCC(=O)c2ccccc2)CC1 (centres unmarked) [Example 152, N-(2-oxo-2-phenylethyl)-2-((1-(2-phenoxypropanoyl)piperidin-4-yl)oxy)benzamide]	1.08	1.16
CCC(=O)NCC(=O)c1ccc(N(C)C)cc1 [Example 99, N-(2-(4-(dimethylamino)phenyl)-2-oxoethyl)propionamide]	1.71	1.134
COc1cccc(C(=O)CNC(=O)c2cccc(CN3CC(C)OC(C)C3)c2)c1 (centres unmarked) [Example 295, 3-((2,6-dimethylmorpholino)methyl)-N-(2-(3-methoxyphenyl)-2-oxoethyl)benzamide]	1.52	1.311
CCCCC(=O)NCC(=O)c1ccc(N(C)C)cc1 [Example 103, N-(2-(4-(dimethylamino)phenyl)-2-oxoethyl)pentanamide]	1.7	1.172
COc1cc(OC)cc(C(=O)NCC(=O)c2ccc(N(C)C)cc2)c1 [Example 121, N-(2-(4-(dimethylamino)phenyl)-2-oxoethyl)-3,5imethoxybenzamide]	0.96	1.203
CC(C)N(C)Cc1cccc(C(=O)NCC(=O)c2ccccc2)c1 [Example 233, 3-((isopropyl(methyl)amino)methyl)-N-(2-oxo-2-phenylethyl)benzamide]	1.15	1.026
O=C(CNC(=O)c1ccccc1OC1CCN(S(=O)(=O)c2ccccc2)CC1)c1ccccc1 [Example 187, N-(2-oxo-2-phenylethyl)-2-((1-(phenylsulfonyl)piperidin-4-yl)oxy)benzamide]	1.03	1.235
O=C(CNC(=O)C1CCCCC1)c1ccccc1 [Example 15, N-(2-oxo-2-phenylethyl)cyclohexanecarboxamide]	1.74	1.17
CCC(=O)NCC(=O)c1ccc(Cl)cc1 [Example 54, N-(2-(4-chlorophenyl)-2-oxoethyl) propionamide]	0.7	1.083
O=C(CCc1ccccc1)NCC(=O)c1ccc(Cl)cc1 [Example 49, N-(2-(4-chlorophenyl)-2-oxoethyl)-3-phenylpropanamide]	0.7	1.197
COc1cccc(C(=O)CNC(=O)C2CCC2)c1 [Example 126, N-(2-(3-methoxyphenyl)-2-oxoethyl)cyclobutanecarboxamide]	1.08	1.352
C/C=C/C(=O)NCC(=O)c1cccc(OC)c1 [Example 123, (E)-N-(2-(3-methoxyphenyl)-2-oxoethyl)but-2-enamide]	1.14	1.312
O=C(COc1ccccc1C(=O)NCC(=O)c1ccccc1)Nc1ccc2c(c1)OCCO2 [Example 218, 2-(2-((2,3-dihydrobenzo[b] [1, 4]dioxin-6-yl)amino)-2-oxoethoxy)-N-(2-oxo-2-phenylethyl)benzamide]	1.33	1.169
CCCCN(CC)Cc1cccc(C(=O)NCC(=O)c2cccc(OC)c2)c1 [Example 290, 3-((butyl (ethyl)amino)methyl)-N-(2-(3-methoxyphenyl)-2-oxoethyl)benzamide]	1.23	0.9234
O=C(CNS(=O)(=O)c1ccccc1)c1ccc(N2CCOCC2)cc1 [Example 148, N-(2-(4-morpholinophenyl)-2-oxoethyl)benzenesulfonamide]	1.44	1.844
CN(C)c1ccc(C(=O)CNC(=O)c2cc(Cl)cc(Cl)c2)cc1 [Example 117, 3,5-dichloro-N-(2-(4-(dimethylamino)phenyl)-2-oxoethyl)benzamide]	1.32	1.076
COc1ccc(C(=O)N2CCC(Oc3ccccc3C(=O)NCC(=O)c3ccccc3)CC2)cc1 [Example 173, 2-((1-(4-methoxybenzoyl)piperidin-4-yl)oxy)-N-(2-oxo-2-phenylethyl)benzamide]	1.07	1.121
CCCN(CCC)Cc1cccc(C(=O)NCC(=O)c2ccccc2)c1 [Example 248, 3-((dipropylamino)methyl)-N-(2-oxo-2-phenylethyl)benzamide]	1.3	1.116
COc1cccc(C(=O)CNC(=O)c2cccc(CC3CCN(c4ccccc4F)CC3)c2)c1 [Example 281, 3-((1-(2-fluorophenyl)piperidin-4-yl)methyl)-N-(2-(3-methoxyphenyl)-2-oxoethyl)benzamide]	1.52	1.236
CCCCC(=O)NCC(=O)c1ccccc1 [Example 20, N-(2-oxo-2-phenylethyl)pentanamide]	0.99	1.217
